Drawing on US11117905B2, “Bisaryl heterocycles as NRF2 activators” (GLAXOSMITHKLINE INTELLECTUAL PROPERTY DEVELOPMENT LIMITED, priority 2016, dated 2021), this text covers EC50 for 18 molecules.

The EC50 is the concentration needed to bring the measured effect to its halfway point.

Molecules are shown by their SMILES. Where only a bound is given, the exact number is not on record here.

One test relates to NQO1 specific enzyme activity in BEAS-2B cells (marker for NRF2 activation). Kind of test: BEAS-2B NQO1 MTT Assay. The format is cell-based. The following applies: Homo sapiens, BEAS-2B, 48 h, NQO1 specific activity induction, 48 hours with compound. An excerpt:
NAD(P)H:quinone oxidoreductase 1 (NQO1), also called DT diaphorase, is a homodimeric FAD-containing enzyme that catalyzes obligatory NAD(P)H-dependent two-electron reductions of quinones and protects cells against the toxic and neoplastic effects of free radicals and reactive oxygen species arising from one-electron reductions. The transcription of NQO1 is finely regulated by NRF2, and thus NQO1 activity is a good marker for NRF2 activation. On day one, frozen BEAS-2B cells (ATCC) were thawed in a water bath, counted, and re-suspended at a concentration of 250,000 cells/mL. Fifty microliters of cells were plated in 384 well black clear-bottomed plates. Plates were incubated at 37° C., 5% CO2 overnight. On day two, plates were centrifuged and 50 nL of compound or controls were added to the cells. Plates were then incubated at 37° C., 5% CO2 for 48 hours. On day four, medium was aspirated from the plate and crude cell lysates were made by adding 13 uL of 1× Cell Signaling Technologies lysis buffer with 1 Complete, Mini, EDTA-free Protease Inhibitor Tablet (Roche) for each 10 mL of lysis buffer. After lysis plates were incubated for 20 minutes at room temperature. Two microliters of lysate were removed for use in Cell Titer Glo assay (Promega) and MTT cocktail was prepared (Prochaska et. al. 1998) for measurement of NQO1 activity. Fifty microliters of MTT cocktail is added to each well, plate is centrifuged, and analyzed on an Envision plate reader (Perkin Elmer) using Absorbance 570 nm label for 30 minutes. Product formation was measured kinetically and the pEC50 of NQO1 specific activity induction was calculated by plotting the change in absorbance (Delta OD/min) versus the log of compound concentration followed by 3-parameter fitting.
pEC50 is the negative log of the EC50.
EC50s<1 nM (+++++), EC50s 1 nM-10 nM (++++), EC50s 10 nM-100 nM (+++), EC50s 100 nM-1 uM (++), EC50s 1 uM-10 uM (+), EC50s>10 uM (−), or were not determined (ND).
Turning to `CCn1nnc2c(F)c([C@H](c3cc(CN4C[C@@H](C)Cc5ccc(C(F)(F)F)cc5S4(=O)=O)c(Cl)s3)C(C)(C)C(=O)O)ccc21` [Example 57, (R)-3-(5-Chloro-4-(((S)-4-methyl-1,1-dioxido-8-(trifluoromethyl)-4,5-dihydrobenzo[f][1,2]thiazepin-2(3H)-yl)methyl)thiophen-2-yl)-3-(1-ethyl-4-fluoro-1H-benzo[d][1,2,3]triazol-5-yl)-2,2-dimethylpropanoic Acid], the 50% effective concentration (EC50) was below 1 nM.
Take `CC[C@H]1Cc2ccccc2S(=O)(=O)N(Cc2nc([C@@H](c3ccc4c(nnn4CC)c3C)C(C)(C)C(=O)Nc3cccnc3)sc2C)C1` [Example 42, (S)-3-(4-(((S)-4-Ethyl-1,1-dioxido-4,5-dihydrobenzo[f][1,2]thiazepin-2(3H)-yl)methyl)-5-methylthiazol-2-yl)-3-(1-ethyl-4-methyl-1H-benzo[d][1,2,3]triazol-5-yl)-2,2-dimethyl-N-(pyridin-3-yl)propanamide]: the EC50 was in the range of 10 to 100 nM.
On the same count and under the same terms, with `CC[C@H]1Cc2ncccc2S(=O)(=O)N(Cc2nc([C@@H](c3ccc4c(nnn4CC)c3C)C(C)(C)C(=O)O)sc2C)C1` [Example 33, (S)-3-(4-(((S)-4-Ethyl-1,1-dioxido-4,5-dihydropyrido[2,3-f][1,2]thiazepin-2(3H)-yl)methyl)-5-methylthiazol-2-yl)-3-(1-ethyl-4-methyl-1H-benzo[d][1,2,3]triazol-5-yl)-2,2-dimethylpropanoic Acid] the figure was below 1 nM; with `CC[C@@H]1CN(Cc2cc([C@H](CCc3cn(CC)nn3)C(C)(C)C(=O)O)sc2C)S(=O)(=O)c2cccnc2O1` [Example 58, (R)-3-(4-(((R)-4-Ethyl-1,1-dioxido-3,4-dihydro-2H-pyrido[2,3-b][1,4,5]oxathiazepin-2-yl)methyl)-5-methylthiophen-2-yl)-5-(1-ethyl-1H-1,2,3-triazol-4-yl)-2,2-dimethylpentanoic Acid], 1 to 10 nM; with `CC[C@H]1Cc2ccc(C(F)(F)F)cc2S(=O)(=O)N(Cc2cc([C@@H](c3ccc4c(nnn4CC)c3C)C(C)(C)C(=O)O)sc2C)C1` [Example 55, (S)-3-(4-(((S)-4-Ethyl-1,1-dioxido-8-(trifluoromethyl)-4,5-dihydrobenzo[f][1,2]thiazepin-2(3H)-yl)methyl)-5-methylthiophen-2-yl)-3-(1-ethyl-4-methyl-1H-benzo[d][1,2,3]triazol-5-yl)-2,2-dimethylpropanoic Acid], below 1 nM.
`CCn1cc(CC[C@@H](c2cc(CN3C[C@@H](C)Cc4ncccc4S3(=O)=O)c(C)s2)C(C)(C)C(=O)O)nn1` [Example 61, (R)-5-(1-Ethyl-1H-1,2,3-triazol-4-yl)-2,2-dimethyl-3-(5-methyl-4-(((S)-4-methyl-1,1-dioxido-4,5-dihydropyrido[2,3-f][1,2]thiazepin-2(3H)-yl)methyl)thiophen-2-yl)pentanoic Acid]: the EC50 is 1 to 10 nM.
In the case of `CC[C@H]1Cc2ccc(C(F)(F)F)cc2S(=O)(=O)N(Cc2nc([C@@H](c3ccc4c(nnn4CC)c3C)C(C)(C)C(=O)O)sc2C)C1` [Example 49, (S)-3-(4-(((S)-4-Ethyl-1,1-dioxido-8-(trifluoromethyl)-4,5-dihydrobenzo[f][1,2]thiazepin-2(3H)-yl)methyl)-5-methylthiazol-2-yl)-3-(1-ethyl-4-methyl-1H-benzo[d][1,2,3]triazol-5-yl)-2,2-dimethylpropanoic Acid], the 50% effective concentration (EC50) was below 1 nM.
Still for that read-out and setting: with `CCn1nnc2c(F)c([C@@H](c3cc(CN4C[C@@H](C)Cc5ccc(C(F)(F)F)cc5S4(=O)=O)c(Cl)s3)C(C)(C)C(=O)O)ccc21` [Example 43, (S)-3-(5-Chloro-4-(((S)-4-methyl-1,1-dioxido-8-(trifluoromethyl)-4,5-dihydrobenzo[f][1,2]thiazepin-2(3H)-yl)methyl)thiophen-2-yl)-3-(1-ethyl-4-fluoro-1H-benzo[d][1,2,3]triazol-5-yl)-2,2-dimethylpropanoic Acid] the figure was 10 to 100 nM.
In the case of `CC[C@@H]1CN(Cc2cc([C@H](CC(=O)O)c3ccc4c(nnn4CC)c3C)sc2Cl)S(=O)(=O)c2ccccc2O1` [Example 5, (R)-3-(5-Chloro-4-(((R)-4-ethyl-1,1-dioxido-3,4-dihydro-2H-benzo[b][1,4,5]oxathiazepin-2-yl)methyl)thiophen-2-yl)-3-(1-ethyl-4-methyl-1H-benzo[d][1,2,3]triazol-5-yl)propanoic acid], the EC50 is 10 to 100 nM.
As to `CCn1nnc2c(C)c([C@H](c3cc(CN4C[C@H](C)Cc5ccccc5S4(=O)=O)c(C)s3)C(C)(C)C(=O)O)ccc21` [Example 17, (S)-3-(1-Ethyl-4-methyl-1H-benzo[d][1,2,3]triazol-5-yl)-2,2-dimethyl-3-(5-methyl-4-(((R)-4-methyl-1,1-dioxido-4,5-dihydrobenzo[f][1,2]thiazepin-2(3H)-yl)methyl)thiophen-2-yl)propanoic Acid], the EC50 lay within 1 to 10 nM.
`CC[C@@H]1CN(Cc2cc([C@@H](c3ccc4c(nnn4CC)c3C)C(C)(C)C(=O)O)sc2Cl)S(=O)(=O)c2cnccc2O1` [Example 56, (S)-3-(5-Chloro-4-(((R)-4-ethyl-1,1-dioxido-3,4-dihydro-2H-pyrido[4,3-b][1,4,5]oxathiazepin-2-yl)methyl)thiophen-2-yl)-3-(1-ethyl-4-methyl-1H-benzo[d][1,2,3]triazol-5-yl)-2,2-dimethylpropanoic Acid]: the EC50 was below 1 nM.
On to `CC[C@@H]1CN(Cc2nc([C@@H](c3ccc4c(nnn4CC)c3C)C(C)(C)C(=O)O)sc2C)S(=O)(=O)c2cnccc2O1` [Example 27, (S)-3-(4-(((R)-4-Ethyl-1,1-dioxido-3,4-dihydro-2H-pyrido[4,3-b][1,4,5]oxathiazepin-2-yl)methyl)-5-methylthiazol-2-yl)-3-(1-ethyl-4-methyl-1H-benzo[d][1,2,3]triazol-5-yl)-2,2-dimethylpropanoic Acid], for which the EC50 is below 1 nM.
The same measure, in the same setting: under `CCn1nnc2c(C)c([C@H](c3nc(CN4C[C@@H](C)Cc5cc(C(F)(F)F)ccc5S4(=O)=O)c(C)s3)C(C)(C)C(=O)O)ccc21` [Example 44, (S)-3-(1-Ethyl-4-methyl-1H-benzo[d][1,2,3]triazol-5-yl)-2,2-dimethyl-3-(5-methyl-4-(((S)-4-methyl-1,1-dioxido-7-(trifluoromethyl)-4,5-dihydrobenzo[f][1,2]thiazepin-2(3H)-yl)methyl)thiazol-2-yl)propanoic Acid] stands below 1 nM.
On the same count and under the same terms, under `CC[C@@H]1CN(Cc2cc([C@H](c3ccc4c(nnn4CC)c3F)C(C)(C)C(=O)O)sc2Cl)S(=O)(=O)c2ccccc2O1` [Example 40, (S)-3-(5-Chloro-4-(((R)-4-ethyl-1,1-dioxido-3,4-dihydro-2H-benzo[b][1,4,5]oxathiazepin-2-yl)methyl)thiophen-2-yl)-3-(1-ethyl-4-fluoro-1H-benzo[d][1,2,3]triazol-5-yl)-2,2-dimethylpropanoic Acid] stands 10 to 100 nM; under `CC[C@@H]1CN(Cc2cc([C@H](CC(=O)O)c3ccc4c(nnn4CC)c3C)sc2Cl)S(=O)(=O)c2cnccc2O1` [Example 22, (R)-3-(5-chloro-4-(((R)-4-ethyl-1,1-dioxido-3,4-dihydro-2H-pyrido[4,3-b][1,4,5]oxathiazepin-2-yl)methyl)thiophen-2-yl)-3-(1-ethyl-4-methyl-1H-benzo[d][1,2,3]triazol-5-yl)propanoic Acid], 10 to 100 nM.
With `CCn1nnc2c(C)c([C@H](c3cc(CN4C[C@@H](C)Cc5ccccc5S4(=O)=O)c(C)s3)C(C)(C)C(=O)O)ccc21` [Example 18, (S)-3-(1-Ethyl-4-methyl-1H-benzo[d][1,2,3]triazol-5-yl)-2,2-dimethyl-3-(5-methyl-4-(((S)-4-methyl-1,1-dioxido-4,5-dihydrobenzo[f][1,2]thiazepin-2(3H)-yl)methyl)thiophen-2-yl)propanoic Acid], the EC50 was below 1 nM.
Turning to `CCn1nnc2c(C)c([C@H](c3cc(CN4C[C@@H](C)Cc5ccc(C(F)(F)F)cc5S4(=O)=O)n(C)n3)C(C)(C)C(=O)O)ccc21` [Example 50, (S)-3-(1-Ethyl-4-methyl-1H-benzo[d][1,2,3]triazol-5-yl)-2,2-dimethyl-3-(1-methyl-5-(((S)-4-methyl-1,1-dioxido-8-(trifluoromethyl)-4,5-dihydrobenzo[f][1,2]thiazepin-2(3H)-yl)methyl)-1H-pyrazol-3-yl)propanoic Acid], the EC50 was in the range of 1 to 10 nM.

Still in this test, the particulars now being: NQO1 specific activity induction, 48 hours with compound.
`CC[C@@H]1CN(Cc2nc(C(c3ccc4c(nnn4CC)c3C)C(C)(C)C(=O)O)sc2C)S(=O)(=O)c2ccccc2O1` (single isomer, unassigned; isomer 2) [Example 14, (R or S)-3-(4-(((R)-4-Ethyl-1,1-dioxido-3,4-dihydro-2H-benzo[b][1,4,5]oxathiazepin-2-yl)methyl)-5-methylthiazol-2-yl)-3-(1-ethyl-4-methyl-1H-benzo[d][1,2,3]triazol-5-yl)-2,2-dimethylpropanoic Acid Isomer 2]: the EC50 was 10 to 100 nM.
